Where only a bound is given, the exact number is not on record here.

Chain of D-amino-acid oxidase (Sus scrofa, UniProt P00371) (P00371 whole entry): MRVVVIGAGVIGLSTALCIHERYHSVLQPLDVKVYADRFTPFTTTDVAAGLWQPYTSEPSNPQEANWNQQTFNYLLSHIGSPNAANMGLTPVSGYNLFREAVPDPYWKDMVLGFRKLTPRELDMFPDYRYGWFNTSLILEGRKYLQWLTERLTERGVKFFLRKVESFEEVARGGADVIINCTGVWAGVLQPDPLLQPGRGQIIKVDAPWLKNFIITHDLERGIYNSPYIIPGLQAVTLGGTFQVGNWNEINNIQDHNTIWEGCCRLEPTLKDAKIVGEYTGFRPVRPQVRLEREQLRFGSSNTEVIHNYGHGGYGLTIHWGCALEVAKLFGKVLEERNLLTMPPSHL

The first test addresses D-amino-acid oxidase (Sus scrofa, UniProt P00371). The test can be described thus: Inhibition of pig DAAO assessed as D-Serine conversion to H2O2 by spectrophotometric analysis.
As usually defined, the IC50 is the point on the concentration scale where inhibition reaches its midpoint. On to `O=C(O)c1cc(CCc2ccccc2)[nH]n1`, for which the half-inhibitory concentration (IC50) was below 1 µM.
As to `O=C(O)c1cc(CCc2ccccc2)c[nH]1`, the half-inhibitory concentration (IC50) is below 1 µM.
On the same count and under the same terms, under `O=C(O)c1cc[nH]n1` stands below 100 µM.
For `O=C(O)c1ccc[nH]1`, the IC50 is below 10 µM.

Another test deals with D-amino-acid oxidase (Homo sapiens, UniProt P14920). The test can be described thus: Inhibition of human recombinant DAAO expressed in HEK293 cell lysate assessed as D-Serine conversion to H2O2 after 20 mins by spectrophotometric analysis. The format is cell-free.
Chain of D-amino-acid oxidase (Homo sapiens, UniProt P14920) (P14920 whole entry): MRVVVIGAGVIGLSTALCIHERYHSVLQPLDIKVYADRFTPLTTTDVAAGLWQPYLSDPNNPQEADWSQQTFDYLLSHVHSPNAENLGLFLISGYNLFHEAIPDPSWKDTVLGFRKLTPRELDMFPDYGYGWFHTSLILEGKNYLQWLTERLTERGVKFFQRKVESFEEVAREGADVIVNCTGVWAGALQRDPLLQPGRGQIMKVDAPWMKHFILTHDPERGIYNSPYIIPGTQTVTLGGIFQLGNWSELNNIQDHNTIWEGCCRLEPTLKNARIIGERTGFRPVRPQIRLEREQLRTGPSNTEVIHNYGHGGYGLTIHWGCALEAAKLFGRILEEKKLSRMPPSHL
`O=c1cc(CSc2ccc(Cl)cc2)occ1O`: the half-inhibitory concentration (IC50) stood at 0.2 µM.
On the same count and under the same terms, under `O=c1cc(CCc2ccccc2)occ1O` stands 0.5 µM.
On to `COCc1cc(=O)c(O)co1`, for which the IC50 worked out at 50 µM.
The same measure, in the same setting: next, `O=c1cc(CSc2ccc(F)cc2)occ1O`: 0.3 µM; `O=c1cc(COc2cccc3ccccc23)occ1O`: 0.9 µM.
Regarding `O=c1cc(COc2ccc3ccccc3c2)occ1O`, the IC50 is 0.8 µM.
For the molecule `O=c1cc(COc2ccc(F)cc2)occ1O`, the IC50 was 0.8 µM.
As to `O=c1cc(COc2ccccc2)occ1O`, the IC50 is 0.9 µM.
Take `O=c1cc(COC2CCCCO2)occ1O` (stereo not drawn): the IC50 was above 100 µM.
As for `O=c1cc(COCc2ccccc2)occ1O`, the IC50 came out at 20 µM.
Turning to `COc1coc(CO)cc1=O`, the IC50 was above 100 µM.
On the same count and under the same terms, next, `CCOCc1cc(=O)c(O)co1`: above 100 µM.
As for `O=c1cc(CSc2ccc(Cl)c(Cl)c2)occ1O`, the IC50 is 0.1 µM.
With `O=c1ccn(CCc2ccccc2)cc1O`, the IC50 is above 100 µM.
Take `O=c1cc(COc2ccc(Cl)c(Cl)c2)occ1O`: the IC50 turned out to be 0.5 µM.
Turning to `O=c1cc(CSc2ccccc2)occ1O`, the IC50 is 0.2 µM.
For `O=c1cc(COc2cccnc2)occ1O`, the IC50 is 3 µM.
On the same count and under the same terms, under `O=c1cc(CSc2ncccn2)occ1O` stands 4 µM.
For `O=c1cc(COc2ccc(Cl)cc2)occ1O`, the IC50 worked out at 0.7 µM.

The values are drawn from ChEMBL document CHEMBL2396605 (Bioorg Med Chem Lett, 2013).
